Patent publication US20240207336A1, “PURIFIED PS[…] […] ACIDIFIED ACETONE” (PSILO SCIENTIFIC LTD, priority 2021, published 2024)

Assay: oxidation (decay) of psilocin over time, applicant's own data

Q: Which “decay of psilocin (oxidation)” value (after 5 hours, moist and/or high light environment) does the source give for `CN(C)CCc1c[nH]c2cccc(O)c12` [psilocin] here?
A: ~25%

Q: What about the “decay of psilocin (oxidation)” value (at 20 hours when shielded from light) of the same compound?
A: 40-60%

Q: What about the “decay of psilocin (oxidation)” value (within 30 minutes, moist and/or high light environment) of the same compound?
A: about 10%
